According to patent publication US20260185169A1, “MOLECULAR SIGNATURES TO PREDICT LONG-TERM LIVER FIBROSIS PROGRESSION” (THE BOARD OF REGENTS OF THE UNIVERSITY OF TEXAS SYSTEM, priority 2022, published 2026):

How the values were obtained:
clinical PCLS tissues = assay: FPS/PLS response (CES, nCounter) in organotypic ex vivo culture of clinical PCLS tissues; format: cell-based, human
Text: Evaluation of galunisertib, erlotinib, AM095, bortezomib, pioglitazone, metformin, epigallocatechin gallate (EGCG), I-BET 151, JQ1, captopril, nizatidine (Selleck Chemicals); MG-132 (Sigma-Aldrich); cenicriviroc (AbbVie) (Table 2) were done in organotypic ex vivo culture of precision-cut liver slice (PCLS) tissues in the FPS validation set 2 as previously described. Patient-derived liver cell spheroids were generated from a cirrhosis patient and high-risk FPS was induced by free fatty acids, and treated with EGCG, bortezomib, cenicriviroc, and/or bezafibrate for 48 h. Mycoplasma-free human hepatic myofibroblast cell lines, LX-2 and TWNT-4, were cultured with MG-132 (20 μM) or DMSO control for 12 and 24 h in triplicates.
Total RNA was isolated from fixed tissue sections by using High Pure RNA Paraffin kit (Roche), and assessed for quality by qRT-PCR of RPL13A. Total RNA from the PCLS tissues was isolated using RNeasy kit (Qiagen). RNA samples (100-200 ng) were subjected to the PLS/FPS assay implemented in the nCounter platform (NanoString), and transcriptome profiling of the CENTAUR trial samples was performed by RNA-Seq (TrueSeq RNA Access, Illumina). Expression of BCL2, COL1A1, and ACTA2 genes was measured by qRT-PCR (Table 3). Serum protein profiling was performed by using xMAP assay (Luminex).
Total RNA was isolated from three to five 10-μm-thick formalin-fixed paraffin-embedded (FFPE) tissue sections from the PLS/FPS derivation/validation cohorts by using High Pure RNA Paraffin kit (Roche), and lack of severe RNA fragmentation was confirmed by qRT-PCR of a housekeeping gene RPL13A as previously described.^1 From freshly harvested myofibroblast cell lines, LX-2 and TWNT-4, and clinical precision-cut-liver slice (PCLS) tissues stored in RNAlater (ThermoFisher) at −80?C, total RNA was isolated using RNeasy kit (Qiagen), and the RNA integrity number (RIN)>8 by Bioanalyzer (Agilent) was regarded as sufficient quality for expression analysis. Total RNA samples (100 to 500 ng) were subjected to the gene signature assays implemented in the digital transcript counting technology (NanoString) according to manufacturer's instruction. Poor quality profiles were detected based on maximum signal intensity from positive control probes <3,000U. Raw transcript count data were log-transformed (base 2) and scaled by geometric mean of control probe data by using NanoString normalizer module implemented in GenePattern data analysis suite (www.broadinstitute.org/genepattern). Genome-wide transcriptome profiling of the CENTAUR trial samples was performed using 100 to 200 ng total RNA by RNA-Seq using exome-enriched library preparation according to the manufacturer's protocol (TrueSeq, Illumina). Raw sequencing reads were mapped onto the reference human genome (hg19) by using the STAR aligner (ver. 2.6.1b) followed by the read counting on genes via featureCounts in the Subread package (ver. 1.6.1). The raw read counts were further normalized by using the Relative Log Expression (RLE) implemented in the DESeq2 package (ver. 1.22.2). Expression of COL1A1, and ACTA2, and BCL2 genes was measured by qRT-PCR (BioRad) using ddCt method with RPL13A as housekeeping gene, as previously described (refer Table 3 for the primer sequences). Gene expression profiles of the PLS/FPS-inducible cell culture model (cell-culture-derived PLS [cPLS] system) treated with erlotinib, pioglitazone, captopril, and resveratrol were obtained from our previous study (GSE81801).

[1] = system: NASH patients with F1 to F3 fibrosis; settings: phase IIb CENTAUR trial, 1-year treatment; cited from earlier work
[2] = system: NASH patients with F1 to F3 fibrosis; assay: Histological fibrosis change after 1-year treatment in phase IIb CENTAUR trial; format: in vivo, human; settings: cenicriviroc arm n=9, 1-year treatment

## CCCCOCCOc1ccc(-c2ccc3c(c2)/C=C(/C(=O)Nc2ccc([S@@+]([O-])Cc4cncn4CCC)cc2)CCCN3CC(C)C)cc1 [Cenicriviroc]
Clinical PCLS tissues; count of patients with CES-based FPS response, PCLS cultured 24 h with agent vs vehicle
  FPS response rate (number of responding patients): 4
Clinical PCLS tissues; count of patients with PLS response, ex vivo PCLS culture
  PLS response rate (number of responding patients): 7
[1]
  histological fibrosis: improved histological fibrosis
[2]
  patients with improvement of fibrosis in the year 1 biopsy: 4 patients
